Data reported in US9388151B2, “Methods for producing 5-(halomethyl) furfural” (MICROMIDAS, INC., priority 2012, dated 2016).

Protocol: The amount of solvent and CMF used are detailed in Table 1.
Once the vials were filled and sealed, each vial was held at the temperatures listed in Table 1 above for 20-30 minutes, at which time a sample was taken and analyzed by HPLC.
An aliquot was analyzed by HPLC. The following HPLC protocol was used. The column was an Agilent Technologies RX-Sil silica column; 4.6×100 mm packed with 1.8 micron silica beads. Column temperature was maintained at 50° C. Injection volume was 1.0 microliter. Mobile phase composition was 80% hexane and 20% tetrahydrofuran flowing at 1.0 mL/min.

| SMILES | solubility for CMF |
| --- | --- |
| CCCCCC [Hexane] | relatively low solubility |
| CCCCC [Pentane] | relatively low solubility |
| Clc1ccccc1 [Chlorobenzene] | relatively soluble |
| CCCCCCCCCC [Decane] | relatively low solubility |

Next, values leading:

| solubility for CMF | SMILES |
| --- | --- |
| relatively low solubility | CCCCCCCCCCCCCC [Tetradecane] |
| relatively low solubility | CCCCCCCCCCCCCCCCCCCC [Eicosane] |
